# In patent US8574563B2 (Bristol-Myers Squibb Company, priority 2006, dated 2013):
# Tested on: HCV 1b-377-neo replicon cells
# Assay: HCV replicon assay, HCV 1b-377-neo replicon cells (1b FRET)
# Assay type: cell-based, Hepatitis C virus genotype 1b
# Settings: HCV 1b-377-neo replicon cells; HCV 1b genotype; read-out: EC50 range against HCV 1b (Table 2, Range)
# Procedure, shortened: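 Compounds were tested in genotype 1b subgenomic replicon cells carrying a neomycin marker, alongside a matched replicon line with an NS5A Y2065H substitution that confers resistance to a reference NS5A inhibitor.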
row,Structure (SMILES),EC50 [nM]
1,"O=C(C(c1ccccc1)N1CC[C@H](F)C1)N1CCC[C@H]1c1ncc(-c2ccc(-c3ccc(-c4cnc([C@@H]5CCCN5C(=O)C(c5ccccc5)N5CC[C@H](F)C5)[nH]4)cc3)cc2)[nH]1 (stereo partly drawn) [Example 20, 5,5′-(4,4′-biphenyldiyl)bis(2-((2S)-1-(((3S)-3-fluoro-1-pyrrolidinyl)(phenyl)acetyl)-2-pyrrolidinyl)-1H-imidazole)]",1 to 99

# Same assay, conditions: Hepatitis C virus, HCV 1b-377-neo replicon cells; HCV 1b genotype; read-out: EC50 range against HCV 1b (Table 2, Range)
row,Structure (SMILES),EC50 [nM]
1,"COC(=O)N[C@H](C(=O)N1CCC[C@H]1c1ncc(-c2ccc(-c3ccc(-c4cnc([C@@H]5CCCN5C(=O)[C@@H](NC(=O)OC)C5CC5)[nH]4)cc3)cc2)[nH]1)C(C)C [Example M77, methyl ((1S)-1-(((2S)-2-(5-(4′-(2-((2S)-1-((2S)-2-cyclopropyl-2-((methoxycarbonyl)amino)acetyl)-2-pyrrolidinyl)-1H-imidazol-5-yl)-4-biphenylyl)-1H-imidazol-2-yl)-1-pyrrolidinyl)carbonyl)-2-methylpropyl)carbamate]",1 to 99
2,"CCN(CC)[C@@H](C(=O)N1CCC[C@H]1c1ncc(-c2ccc(-c3ccc(-c4cnc([C@@H]5CCCN5C(=O)[C@H](Cc5cncn5C)NC(=O)OC)[nH]4)cc3)cc2)[nH]1)c1ccccc1 [cj-44, methyl ((1S)-2-((2S)-2-(5-(4′-(2-((2S)-1-((2R)-2-(diethylamino)-2-phenylacetyl)-2-pyrrolidinyl)-1H-imidazol-5-yl)-4-biphenylyl)-1H-imidazol-2-yl)-1-pyrrolidinyl)-1-((1-methyl-1H-imidazol-5-yl)methyl)-2-oxoethyl)carbamate]",0.001 to 0.999
3,"CCCN(CCC)[C@H](C)C(=O)N1CCC[C@H]1c1ncc(-c2ccc(-c3ccc(-c4cnc([C@@H]5CCCN5C(=O)[C@H](C)NC(=O)OC)[nH]4)cc3)cc2)[nH]1 [Example M102, methyl ((1S)-2-((2S)-2-(5-(4′-(2-((2S)-1-(N,N-dipropyl-D-alanyl)-2-pyrrolidinyl)-1H-imidazol-5-yl)-4-biphenylyl)-1H-imidazol-2-yl)-1-pyrrolidinyl)-1-methyl-2-oxoethyl)carbamate]",1 to 99
4,"O=C(N[C@@H](C(=O)N1CCC[C@H]1c1ncc(-c2ccc(-c3ccc(-c4cnc([C@@H]5CCCN5C(=O)[C@H](NC(=O)N5CCOCC5)c5ccccc5)[nH]4)cc3)cc2)[nH]1)c1ccccc1)N1CCOCC1 [Example 25-6, N,N′-(4,4′-biphenyldiylbis(1H-imidazole-5,2-diyl(2S)-2,1-pyrrolidinediyl((1R)-2-oxo-1-phenyl-2,1-ethanediyl)))di(4-morpholinecarboxamide)]",1 to 99
5,"C[C@H](NC(=O)[C@@H](c1ccccc1)N(C)C)c1ncc(-c2ccc(-c3ccc(-c4cnc([C@@H]5CCCN5C(=O)[C@@H](c5ccccc5)N(C)C)[nH]4)cn3)cc2)[nH]1 [Example 152j-11, (2R)-2-(dimethylamino)-N-((1S)-1-(5-(4-(5-(2-((2S)-1-((2R)-2-(dimethylamino)-2-phenylacetyl)-2-pyrrolidinyl)-1H-imidazol-5-yl)-2-pyridinyl)phenyl)-1H-imidazol-2-yl)ethyl)-2-phenylacetamide]",0.001 to 0.999
6,"CN(C)[C@@H](C(=O)N1CCC[C@H]1c1ncc(-c2ccc(-c3ccc(-c4cnc([C@@H]5CCCN5C(=O)[C@H]5CCCO5)[nH]4)cc3)cc2)[nH]1)c1ccccc1 [Example 86, (1R)-N,N-dimethyl-2-oxo-1-phenyl-2-((2S)-2-(5-(4′-(2-((2S)-1-((2R)-tetrahydro-2-furanylcarbonyl)-2-pyrrolidinyl)-1H-imidazol-5-yl)-4-biphenylyl)-1H-imidazol-2-yl)-1-pyrrolidinyl)ethanamine]",0.001 to 0.999
7,"COC(=O)N[C@@H](Cc1c[nH]cn1)C(=O)N1CCC[C@H]1c1ncc(-c2ccc(-c3ccc(-c4cnc([C@@H]5CCCN5C(=O)[C@H](Cc5c[nH]cn5)NC(=O)OC)[nH]4)cc3)cc2)[nH]1 [cj-131, methyl ((1S)-2-((2S)-2-(5-(4′-(2-((2S)-1-((2S)-3-(1H-imidazol-4-yl)-2-((methoxycarbonyl)amino)propanoyl)-2-pyrrolidinyl)-1H-imidazol-5-yl)-4-biphenylyl)-1H-imidazol-2-yl)-1-pyrrolidinyl)-1-(1H-imidazol-4-ylmethyl)-2-oxoethyl)carbamate]",1 to 99
8,"COC(=O)N[C@@H](Cc1ccc(OCc2ccccc2)cc1)C(=O)N1CCC[C@H]1c1ncc(-c2ccc(-c3ccc(-c4cnc([C@@H]5CCCN5C(=O)[C@@H](NC(=O)OC)[C@@H](C)OC)[nH]4)cc3)cc2)[nH]1 [cj-105, methyl ((1S,2R)-1-(((2S)-2-(5-(4′-(2-((2S)-1-(O-benzyl-N-(methoxycarbonyl)-L-tyrosyl)-2-pyrrolidinyl)-1H-imidazol-5-yl)-4-biphenylyl)-1H-imidazol-2-yl)-1-pyrrolidinyl)carbonyl)-2-methoxypropyl)carbamate]",0.001 to 0.999
9,"COC(=O)N[C@@H](C(=O)N1CCC[C@H]1c1ncc(-c2ccc(-c3ccc(-c4cnc([C@@H]5CCCN5C(=O)C(c5cccs5)N(C)C)[nH]4)cc3)cc2)[nH]1)c1ccccc1 (stereo partly drawn) [Example 84-46, methyl ((1R)-2-((2S)-2-(5-(4′-(2-((2S)-1-((dimethylamino)(2-thienyl)acetyl)-2-pyrrolidinyl)-1H-imidazol-5-yl)-4-biphenylyl)-1H-imidazol-2-yl)-1-pyrrolidinyl)-2-oxo-1-phenylethyl)carbamate]",0.001 to 0.999
10,"COC(=O)N[C@H](C(=O)N1CCC[C@H]1c1ncc(-c2ccc(-c3ccc(-c4cnc([C@@H]5CCCN5C(=O)[C@@H](NC(=O)OC)C(C)C)[nH]4)c(F)c3)cc2F)[nH]1)C(C)C [Example D58, methyl ((1S)-1-(((2S)-2-(5-(3,3′-difluoro-4′-(2-((2S)-1-((2S)-2-((methoxycarbonyl)amino)-3-methylbutanoyl)-2-pyrrolidinyl)-1H-imidazol-5-yl)-4-biphenylyl)-1H-imidazol-2-yl)-1-pyrrolidinyl)carbonyl)-2-methylpropyl) carbamate]",0.001 to 0.999
11,"COC(=O)N[C@H](C(=O)N1CCC[C@H]1c1ncc(-c2ccc(-c3ccc(-c4cnc([C@@H]5CCCN5C(=O)[C@@H](Nc5cncnc5)C(C)C)[nH]4)cc3)cc2)[nH]1)C(C)C [cj-20d, methyl ((1S)-2-methyl-1-(((2S)-2-(5-(4′-(2-((2S)-1-(N-5-pyrimidinyl-L-valyl)-2-pyrrolidinyl)-1H-imidazol-5-yl)-4-biphenylyl)-1H-imidazol-2-yl)-1-pyrrolidinyl)carbonyl)propyl)carbamate]",0.001 to 0.999
12,"CC(C)[C@H](NS(C)(=O)=O)C(=O)N1CCC[C@H]1c1nc(-c2ccc(-c3ccc(-c4c[nH]c([C@@H]5CCCN5C(=O)[C@@H](NS(C)(=O)=O)C(C)C)n4)cc3)cc2)c[nH]1 [Example F66, N-((1S)-2-methyl-1-(((2S)-2-(4-(4′-(2-((2S)-1-((2S)-3-methyl-2-((methylsulfonyl)amino)butanoyl)-2-pyrrolidinyl)-1H-imidazol-4-yl)-4-biphenylyl)-1H-imidazol-2-yl)-1-pyrrolidinyl)carbonyl)propyl)methanesulfonamide]",1 to 99
13,"CN(C)[C@@H](C(=O)N1CCC[C@H]1c1ncc(-c2ccc(-c3ccc(-c4cnc([C@@H]5CCCN5C(=O)C5(C)CCN(C(=O)OC(C)(C)C)CC5)[nH]4)cc3)cc2)[nH]1)c1ccccc1 [Example 94-12, tert-butyl 4-(((2S)-2-(5-(4′-(2-((2S)-1-((2R)-2-(dimethylamino)-2-phenylacetyl)-2-pyrrolidinyl)-1H-imidazol-5-yl)-4-biphenylyl)-1H-imidazol-2-yl)-1-pyrrolidinyl)carbonyl)-4-methyl-1-piperidinecarboxylate]",1 to 99
14,"COC(=O)N[C@H](C(=O)N1CCC[C@H]1c1ncc(-c2ccc(-c3ccc(-c4cnc([C@@H]5CCCN5C(=O)CN(C(C)C)C(C)C)[nH]4)cc3)cc2)[nH]1)C(C)C [LS26, methyl ((1S)-1-(((2S)-2-(5-(4′-(2-((2S)-1-(N,N-diisopropylglycyl)-2-pyrrolidinyl)-1H-imidazol-5-yl)-4-biphenylyl)-1H-imidazol-2-yl)-1-pyrrolidinyl)carbonyl)-2-methylpropyl)carbamate]",0.001 to 0.999
15,"CCOC(=O)N[C@H](C)C(=O)N1CCC[C@H]1c1ncc(-c2ccc(-c3ccc(-c4cnc([C@@H]5CCCN5C(=O)[C@@H](C)NC(=O)OCC)[nH]4)cc3)cc2)[nH]1 [Example M4, ethyl ((1R)-2-((2S)-2-(5-(4′-(2-((2S)-1-(N-(ethoxycarbonyl)-D-alanyl)-2-pyrrolidinyl)-1H-imidazol-5-yl)-4-biphenylyl)-1H-imidazol-2-yl)-1-pyrrolidinyl)-1-methyl-2-oxoethyl)carbamate]",100 to 999
16,"COC(=O)N[C@@H](C)C(=O)N1CCC[C@H]1c1ncc(-c2ccc(-c3ccc(-c4cnc([C@@H]5CCCN5C(=O)[C@@H](NC(=O)OC)C5CC5)[nH]4)cc3)cc2)[nH]1 [Example M93, methyl ((1S)-1-cyclopropyl-2-((2S)-2-(5-(4′-(2-((2S)-1-(N-(methoxycarbonyl)-L-alanyl)-2-pyrrolidinyl)-1H-imidazol-5-yl)-4-biphenylyl)-1H-imidazol-2-yl)-1-pyrrolidinyl)-2-oxoethyl)carbamate]",1 to 99
17,"COC(=O)N[C@@H](C(=O)N1CCC[C@H]1c1ncc(-c2ccc(-c3ccc(-c4cnc([C@@H]5CCCN5C(=O)[C@H](OC(C)=O)c5ccccc5)[nH]4)cc3)cc2)[nH]1)c1ccccc1 [Example 84-82, (1R)-2-((2S)-2-(5-(4′-(2-((2S)-1-((2R)-2-((methoxycarbonyl)amino)-2-phenylacetyl)-2-pyrrolidinyl)-1H-imidazol-5-yl)-4-biphenylyl)-1H-imidazol-2-yl)-1-pyrrolidinyl)-2-oxo-1-phenylethyl acetate]",0.001 to 0.999
18,"CCOC(=O)N[C@@H](C)C(=O)N1CCC[C@H]1c1ncc(-c2ccc(-c3ccc(-c4cnc([C@@H]5CCCN5C(=O)[C@H](C)NC(=O)OCC)[nH]4)cc3)cc2)[nH]1 [Example M5, ethyl ((1S)-2-((2S)-2-(5-(4′-(2-((2S)-1-(N-(ethoxycarbonyl)-L-alanyl)-2-pyrrolidinyl)-1H-imidazol-5-yl)-4-biphenylyl)-1H-imidazol-2-yl)-1-pyrrolidinyl)-1-methyl-2-oxoethyl)carbamate]",1000 to 10000
